Measurements from PubChem BioAssay (NCI).
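Dose response: 5 concentrations. Exposure: 48 h. Format: 96-well plates. Endpoint: linear interpolation; highest concentration if not reached. GI50 marks 50% less growth. TGI: concentration producing complete growth inhibition.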

Tests used:
Assay in all cases: inhibition of tumour cell growth, NCI panel, 48 h
786-0 renal = test system: 786-0 renal
A498 renal = test system: A498 renal
A549 NSCLC = test system: A549 NSCLC
ACHN renal = test system: ACHN renal
BT-549 breast = test system: BT-549 breast
CAKI-1 renal = test system: CAKI-1 renal
CCRF-CEM leukemia = test system: CCRF-CEM leukemia
COLO 205 colon = test system: COLO 205 colon
DU-145 prostate = test system: DU-145 prostate
EKVX NSCLC = test system: EKVX NSCLC
HCC-2998 colon = test system: HCC-2998 colon
HCT-116 colon = test system: HCT-116 colon
HCT-15 colon = test system: HCT-15 colon
HL-60(TB) leukemia = test system: HL-60(TB) leukemia
HOP-62 NSCLC = test system: HOP-62 NSCLC
HOP-92 NSCLC = test system: HOP-92 NSCLC
HS 578T breast = test system: HS 578T breast
HT29 colon = test system: HT29 colon
IGROV1 ovarian = test system: IGROV1 ovarian
K-562 leukemia = test system: K-562 leukemia
KM12 colon = test system: KM12 colon
LOX IMVI melanoma = test system: LOX IMVI melanoma
M14 melanoma = test system: M14 melanoma
MALME-3M melanoma = test system: MALME-3M melanoma
MCF7 breast = test system: MCF7 breast
MDA-MB-231 breast = test system: MDA-MB-231 breast
MDA-MB-435 = test system: MDA-MB-435
MOLT-4 leukemia = test system: MOLT-4 leukemia
NCI-H226 lung = test system: NCI-H226 lung
NCI-H23 lung = test system: NCI-H23 lung
NCI-H460 lung = test system: NCI-H460 lung
NCI-H522 lung = test system: NCI-H522 lung
NCI/ADR-RES ovarian = test system: NCI/ADR-RES ovarian
OVCAR-3 ovarian = test system: OVCAR-3 ovarian
OVCAR-4 ovarian = test system: OVCAR-4 ovarian
OVCAR-5 ovarian = test system: OVCAR-5 ovarian
OVCAR-8 ovarian = test system: OVCAR-8 ovarian
PC-3 prostate = test system: PC-3 prostate
RPMI-8226 leukemia = test system: RPMI-8226 leukemia
RXF 393 renal = test system: RXF 393 renal
SF-268 CNS = test system: SF-268 CNS
SF-295 CNS = test system: SF-295 CNS
SF-539 CNS = test system: SF-539 CNS
SK-MEL-2 melanoma = test system: SK-MEL-2 melanoma
SK-MEL-28 melanoma = test system: SK-MEL-28 melanoma
SK-MEL-5 melanoma = test system: SK-MEL-5 melanoma
SK-OV-3 ovarian = test system: SK-OV-3 ovarian
SN12C renal = test system: SN12C renal
SNB-19 CNS = test system: SNB-19 CNS
SNB-75 CNS = test system: SNB-75 CNS
SR leukemia = test system: SR leukemia
SW-620 colon = test system: SW-620 colon
T-47D breast = test system: T-47D breast
TK-10 renal = test system: TK-10 renal
U251 CNS = test system: U251 CNS
UACC-257 melanoma = test system: UACC-257 melanoma
UACC-62 melanoma = test system: UACC-62 melanoma
UO-31 renal = test system: UO-31 renal

## CC(=O)Nc1cc(F)cc(-c2ccc3[nH]cc(-c4ccccc4)c3n2)c1
786-0 renal
  GI50: 2220 nM
  TGI: 5.65 µM
A498 renal
  GI50: 3.75 µM
  TGI: 12.7 µM
A549 NSCLC
  GI50: 3.6 µM
  TGI: 16.7 µM
ACHN renal
  GI50: 4.08 µM
  TGI: 14.3 µM
BT-549 breast
  GI50: 4.78 µM
  TGI: 17 µM
CAKI-1 renal
  GI50: 3.32 µM
  TGI: 12.2 µM
CCRF-CEM leukemia
  GI50: 3.42 µM
  TGI: 17.9 µM
COLO 205 colon
  GI50: 2170 nM
  TGI: 4.69 µM
DU-145 prostate
  GI50: 5.52 µM
  TGI: 17.9 µM
EKVX NSCLC
  GI50: 4.71 µM
  TGI: 21.5 µM
HCC-2998 colon
  GI50: 2110 nM
  TGI: 4.71 µM
HCT-116 colon
  GI50: 3.33 µM
  TGI: 12 µM
HCT-15 colon
  GI50: 2080 nM
  TGI: 5.05 µM
HL-60(TB) leukemia
  GI50: 2720 nM
  TGI: 10.7 µM
HOP-62 NSCLC
  GI50: 4.2 µM
  TGI: 17.4 µM
HOP-92 NSCLC
  GI50: 2970 nM
  TGI: 9.63 µM
HS 578T breast
  GI50: 5.01 µM
  TGI: 47.7 µM
HT29 colon
  GI50: 2210 nM
  TGI: 5.15 µM
IGROV1 ovarian
  GI50: 5.04 µM
  TGI: 21.1 µM
K-562 leukemia
  GI50: 2790 nM
  TGI: 9.11 µM
KM12 colon
  GI50: 1870 nM
  TGI: 3.56 µM
LOX IMVI melanoma
  GI50: 1750 nM
  TGI: 3.39 µM
M14 melanoma
  GI50: 2650 nM
  TGI: 7.85 µM
MALME-3M melanoma
  GI50: 3.5 µM
  TGI: 12.8 µM
MCF7 breast
  GI50: 2900 nM
  TGI: 12.3 µM
MDA-MB-231 breast
  GI50: 3.46 µM
  TGI: 12.7 µM
MDA-MB-435
  GI50: 4.05 µM
  TGI: 15.5 µM
MOLT-4 leukemia
  GI50: 2260 nM
  TGI: 10.4 µM
NCI-H226 lung
  GI50: 6.31 µM
  TGI: 23 µM
NCI-H23 lung
  GI50: 4.98 µM
  TGI: 20 µM
NCI-H460 lung
  GI50: 3.37 µM
  TGI: 14.6 µM
NCI-H522 lung
  GI50: 1830 nM
  TGI: 4.11 µM
NCI/ADR-RES ovarian
  GI50: 3.99 µM
  TGI: 23 µM
OVCAR-3 ovarian
  GI50: 5.08 µM
  TGI: 17.8 µM
OVCAR-4 ovarian
  GI50: 5.44 µM
  TGI: 18.6 µM
OVCAR-5 ovarian
  GI50: 4.92 µM
  TGI: 22.1 µM
OVCAR-8 ovarian
  GI50: 6.16 µM
  TGI: 44.3 µM
PC-3 prostate
  GI50: 3.33 µM
  TGI: 16 µM
RPMI-8226 leukemia
  GI50: 3.08 µM
  TGI: 19.2 µM
RXF 393 renal
  GI50: 2500 nM
  TGI: 7.97 µM
SF-268 CNS
  GI50: 5.12 µM
  TGI: 22 µM
SF-295 CNS
  GI50: 2100 nM
  TGI: 5.16 µM
SF-539 CNS
  GI50: 2970 nM
  TGI: 10.7 µM
SK-MEL-2 melanoma
  GI50: 2460 nM
  TGI: 6.8 µM
SK-MEL-28 melanoma
  GI50: 2430 nM
  TGI: 6.13 µM
SK-MEL-5 melanoma
  GI50: 4.07 µM
  TGI: 15 µM
SK-OV-3 ovarian
  GI50: 6.84 µM
  TGI: 21.3 µM
SN12C renal
  GI50: 6.7 µM
  TGI: 21.9 µM
SNB-19 CNS
  GI50: 3.9 µM
  TGI: 13.9 µM
SNB-75 CNS
  GI50: 4.93 µM
  TGI: 18.1 µM
SR leukemia
  GI50: 2750 nM
  TGI: 8.4 µM
SW-620 colon
  GI50: 3.31 µM
  TGI: 25.3 µM
T-47D breast
  GI50: 4.77 µM
  TGI: 29.1 µM
TK-10 renal
  GI50: 6 µM
  TGI: 18.3 µM
U251 CNS
  GI50: 3.73 µM
  TGI: 16.1 µM
UACC-257 melanoma
  GI50: 2320 nM
  TGI: 5.96 µM
UACC-62 melanoma
  GI50: 3.34 µM
  TGI: 11.9 µM
UO-31 renal
  GI50: 3.88 µM
  TGI: 14.8 µM
